Test results published in publication PMC7999658, “Characterization of P-Glycoprotein Inhibitors for Evaluating the Effect of P-Glycoprotein on the Intestinal Absorption of Drugs” (Pharmaceutics, 2021).
Where two headings read alike, the source gives them in different places.

What was measured:
Caco-2 cell monolayers = experiment: Caco-2 monolayer transport study: paracellular marker permeability and mass balance (% recovery); type: in vitro ADME, human; details: Caco-2 monolayers, lucifer yellow 100 μM
BCRP = target: T1, BCRP (Homo sapiens, UniProt Q9UNQ0); experiment: Inhibition of BCRP-mediated transport of mitoxantrone across Caco-2 cell monolayers; details: Caco-2 monolayers
T1 sequence (Q9UNQ0 1-655): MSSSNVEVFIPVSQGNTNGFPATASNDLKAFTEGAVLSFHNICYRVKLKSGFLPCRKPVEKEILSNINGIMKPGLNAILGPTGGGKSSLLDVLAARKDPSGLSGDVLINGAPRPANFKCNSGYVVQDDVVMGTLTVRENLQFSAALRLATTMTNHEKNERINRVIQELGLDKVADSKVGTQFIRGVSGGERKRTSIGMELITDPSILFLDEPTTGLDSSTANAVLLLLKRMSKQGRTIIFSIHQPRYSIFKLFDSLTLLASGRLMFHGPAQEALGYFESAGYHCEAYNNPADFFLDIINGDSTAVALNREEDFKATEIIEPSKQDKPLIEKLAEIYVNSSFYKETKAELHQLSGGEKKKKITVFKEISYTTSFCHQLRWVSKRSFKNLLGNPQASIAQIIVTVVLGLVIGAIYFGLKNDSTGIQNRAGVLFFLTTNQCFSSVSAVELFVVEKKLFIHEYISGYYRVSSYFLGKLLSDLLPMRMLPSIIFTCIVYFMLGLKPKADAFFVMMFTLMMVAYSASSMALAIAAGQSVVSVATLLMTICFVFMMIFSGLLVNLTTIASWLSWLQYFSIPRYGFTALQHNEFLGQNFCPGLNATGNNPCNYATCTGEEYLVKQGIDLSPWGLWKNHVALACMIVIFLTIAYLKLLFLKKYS
Procedure: For transport experiments, Caco-2 cells were grown on a polyethylene terephthalate insert (0.4 μm pore size, 12 mm diameter) at 1.0 × 10^5 cells/well, and cultured for 14–21 days with the replacement of the medium once every 2 days. Caco-2 cells used in this study were within the passage range of 55 through 70.
(§1) The efflux ratio (ER) was calculated using Equation (3) ER = Papp,BA/Papp,AB(3) where Papp,AB and Papp,BA are the Papp values for AP-to-BL and BL-to-AP transport, respectively.
(§2) IC50 values of Papp,BA and ER were also determined using Equation (4).

P-gp [1] = target: T2, P-gp (Homo sapiens, UniProt P08183); experiment: Inhibition of P-gp-mediated transport of paclitaxel across Caco-2 cell monolayers; type: cell-based
T2 construct: host or cells: Caco-2
T2 sequence (P08183 whole entry): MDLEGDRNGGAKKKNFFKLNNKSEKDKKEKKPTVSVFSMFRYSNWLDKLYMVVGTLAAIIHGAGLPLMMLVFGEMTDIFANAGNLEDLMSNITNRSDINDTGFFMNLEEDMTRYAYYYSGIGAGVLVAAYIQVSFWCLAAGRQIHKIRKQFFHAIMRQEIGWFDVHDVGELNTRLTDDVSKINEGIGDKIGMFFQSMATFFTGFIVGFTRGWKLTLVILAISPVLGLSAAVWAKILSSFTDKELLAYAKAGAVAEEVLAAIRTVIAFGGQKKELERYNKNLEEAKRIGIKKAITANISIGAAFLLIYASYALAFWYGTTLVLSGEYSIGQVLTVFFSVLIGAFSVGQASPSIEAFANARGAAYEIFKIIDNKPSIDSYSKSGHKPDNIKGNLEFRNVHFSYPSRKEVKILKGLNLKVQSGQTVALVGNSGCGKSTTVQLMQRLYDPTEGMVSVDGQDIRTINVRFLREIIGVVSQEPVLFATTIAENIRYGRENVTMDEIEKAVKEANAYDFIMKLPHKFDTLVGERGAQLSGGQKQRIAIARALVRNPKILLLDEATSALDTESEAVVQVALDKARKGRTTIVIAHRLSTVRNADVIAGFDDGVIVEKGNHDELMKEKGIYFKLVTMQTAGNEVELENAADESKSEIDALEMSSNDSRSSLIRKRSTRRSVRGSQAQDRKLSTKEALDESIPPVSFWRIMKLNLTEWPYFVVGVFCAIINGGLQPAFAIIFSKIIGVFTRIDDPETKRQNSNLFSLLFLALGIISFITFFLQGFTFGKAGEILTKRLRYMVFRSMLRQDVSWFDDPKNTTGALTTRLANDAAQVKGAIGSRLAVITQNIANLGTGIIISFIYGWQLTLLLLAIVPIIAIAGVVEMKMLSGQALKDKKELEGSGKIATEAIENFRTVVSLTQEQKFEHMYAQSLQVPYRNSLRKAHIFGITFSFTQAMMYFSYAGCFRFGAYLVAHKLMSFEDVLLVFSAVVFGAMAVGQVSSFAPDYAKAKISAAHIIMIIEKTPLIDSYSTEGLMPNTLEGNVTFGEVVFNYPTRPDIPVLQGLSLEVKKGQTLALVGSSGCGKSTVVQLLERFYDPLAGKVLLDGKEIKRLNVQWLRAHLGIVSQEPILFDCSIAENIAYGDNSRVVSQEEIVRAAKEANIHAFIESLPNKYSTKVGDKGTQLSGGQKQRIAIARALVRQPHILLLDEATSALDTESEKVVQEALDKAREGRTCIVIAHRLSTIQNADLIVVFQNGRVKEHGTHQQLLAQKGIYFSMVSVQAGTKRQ
Procedure: Caco-2 cells from Dainippon Sumitomo Pharma (Osaka, Japan) were cultured in DMEM supplemented with 10% heat-inactivated fetal bovine serum, 1% antibiotic-antimycotic, 1% nonessential amino acids, and 2 mM L-glutamine [31]. Cells were maintained at 37 °C in 5% CO2/95% air and passaged upon reaching approximately 80% confluence using 0.25% trypsin/1 mM EDTA solution. For transport experiments, Caco-2 cells were grown on a polyethylene terephthalate insert (0.4 μm pore size, 12 mm diameter) at 1.0 × 10^5 cells/well, and cultured for 14–21 days with the replacement of the medium once every 2 days. Caco-2 cells used in this study were within the passage range of 55 through 70.
as §1, §2

P-gp [2] = tested on: P-gp; design: method as in PMID 18678495; details: cited from earlier work
[3] = topotecan 2 mg/kg po; for concentration at 30 min: FVB, mouse, oral, 2 mg/kg
Procedure: Food and water were available ad libitum.
The flow rate was 1.0 mL/min.

[4] = for BA of paclitaxel: paclitaxel 20 mg/kg po vs 5 mg/kg IV
[5] = paclitaxel 10 mg/kg po
in vivo [6] = details: FVB, mouse, oral, 10 mg/kg
in vivo [7] = details: FVB, mouse
[8] = IC50 on Papp,BA of mitoxantrone, mitoxantrone 5 μM, 50% decrease of Papp,BA
[9] = Caco-2 monolayers, 50% decrease of efflux ratio, read-out: IC50 on ER of paclitaxel
[10] = Caco-2 monolayers, paclitaxel 5 μM, 50% decrease of Papp,BA, read-out: IC50 on Papp,BA of paclitaxel
[11] = Caco-2 monolayers, paclitaxel 5 μM, inhibitor concentration to achieve 50% increase of Papp,AB, read-out: IC50 on Papp,AB of paclitaxel
[12] = paclitaxel 20 mg/kg po, WT mice
[13] = systemic (abdominal vein) plasma
[14] = male, systemic (abdominal vein) plasma
[15] = portal vein plasma, po, 20 mg/kg
[16] = systemic (abdominal vein) plasma, po, 20 mg/kg
[17] = male, portal vein plasma, po, 20 mg/kg
[18] = male, systemic (abdominal vein) plasma, po, 20 mg/kg

lucifer yellow
Papp,AB (Caco-2 cell monolayers): 0.1 ×10⁻⁶ cm/s

COc1cc2c(cc1OC)CN(CCc1ccc(NC(=O)c3cc(OC)c(OC)cc3NC(=O)c3cnc4ccccc4c3)cc1)CC2 [XR9576, N-(2-([(4-(2-[3,4-Dihydro-6,7-dimethoxy-2(1H)-isoquinolinyl]ethyl)phenyl)amino]carbonyl)-4,5-dimethoxyphenyl)-3-quinolinecarboxamide]
Hill coefficient, ER of mitoxantrone (BCRP): 0.44 ± 0.05
IC50 (BCRP; [8]): 1000 ± 45 nM
IC50 (BCRP; read-out: IC50 on ER of mitoxantrone, 50% decrease of efflux ratio): 531 ± 162 nM
Hill coefficient, ER of paclitaxel (P-gp [1]; Caco-2 monolayers): 3.41 ± 0.28
basal-to-apical transport of paclitaxel (P-gp [1]; Caco-2 monolayers): significantly decreased
IC50 (P-gp [1]; [9]): 46 ± 19 nM
IC50 (P-gp [1]; [10]): 64 ± 40 nM
IC50 (P-gp [1]; [11]): 234 ± 61 nM
IC50 for P-gp-mediated Hoechst 33342 transport lower than that for BCRP-mediated Hoechst 33342 transport (P-gp [2]): approximately 20.1 fold

CC[C@@]1(O)C(=O)OCc2c1cc1n(c2=O)Cc2cc3c(CN(C)C)c(O)ccc3nc2-1 [topotecan]
concentration at 30 min ([3]; plasma (portal vein), Cpv of topotecan, mdr1a/1b KO mice): 236 ± 30 nM
concentration at 30 min ([3]; plasma (systemic circulation, abdominal vein), Csys of topotecan, bcrp KO mice): 398 ± 88 nM
concentration at 30 min ([3]; plasma (systemic circulation, abdominal vein), Csys of topotecan, mdr1a/1b KO mice): 207 ± 28 nM
concentration at 30 min ([3]; portal vein plasma, Cpv of topotecan, bcrp KO mice): 469 nM
concentration at 30 min ([3]; male, plasma (systemic circulation, abdominal vein), Csys of topotecan, WT mice, no inhibitor): 179 ± 25 nM
concentration at 30 min ([3]; male, portal vein plasma, Cpv of topotecan, WT mice, no inhibitor): 196 ± 29 nM
V of topotecan, bcrp KO mice versus WT mice ([3]; 30 min): approximately 4.1 fold
V of topotecan, bcrp KO mice versus mdr1a/1b KO mice ([3]; 30 min): ~2.4 fold
Absorption Rate V of topotecan ([3]; 30 min, WT mice, no inhibitor): 1.29 nmol/min/kg
Cpv − Csys of topotecan ([3]; 30 min, WT mice, no inhibitor): 17.1 ± 5.7 nM
Absorption Rate V of topotecan ([3]; 30 min, bcrp KO mice): 5.30 nmol/min/kg
Cpv of topotecan ([3]; 30 min, bcrp KO mice): 469 ± 64 nM
Cpv − Csys of topotecan ([3]; 30 min, bcrp KO mice): 70.5 ± 20 nM
Absorption Rate V of topotecan ([3]; 30 min, mdr1a/1b KO mice): 2.17 nmol/min/kg
Cpv − Csys of topotecan ([3]; 30 min, mdr1a/1b KO mice): 28.9 ± 8.4 nM

CCOC/C=C/c1ccc(-c2nc(-c3ccc(NC(C)C)cc3)c(-c3ccc(NC(C)C)cc3)[nH]2)cc1 [OC144-093, (E)-4,4’-(2-(4-[3-ethoxyprop-1-en-1-yl]phenyl)-1H-imidazole-4,5-diyl)bis(N-isopropylaniline)]
Hill coefficient, ER of mitoxantrone (BCRP): 3.61 ± 0.41
transport of paclitaxel in Caco-2 cells on addition of inhibitor (P-gp [1]; 0.01-10 μM inhibitor): not changed

CC(=O)O[C@H]1C(=O)[C@@]2(C)[C@H]([C@H](OC(=O)c3ccccc3)[C@]3(O)C[C@H](OC(=O)[C@H](O)[C@@H](NC(=O)c4ccccc4)c4ccccc4)C(C)=C1C3(C)C)[C@]1(OC(C)=O)CO[C@@H]1C[C@@H]2O [paclitaxel]
t1/2 of paclitaxel ([4]; paclitaxel 5 mg/kg IV, WT mice): 2.38 h
AUCpv of paclitaxel, mdr1a/1b KO mice versus WT mice ([4]; paclitaxel 20 mg/kg po): 3.3 fold
AUCsys of paclitaxel, mdr1a/1b KO mice higher than WT mice ([4]; paclitaxel 20 mg/kg po): approximately 2.8 fold
BA of paclitaxel, mdr1a/1b KO mice versus WT mice ([4]; paclitaxel 20 mg/kg po): 2.5 fold
Cmax of paclitaxel in portal vein, mdr1a/1b KO mice versus WT mice ([4]; paclitaxel 20 mg/kg po): 3.5 fold
Cmax of paclitaxel in systemic circulation, mdr1a/1b KO mice versus WT mice ([4]; paclitaxel 20 mg/kg po): 2.7 fold
FaFg of paclitaxel, mdr1a/1b KO mice versus WT mice ([4]; paclitaxel 20 mg/kg po): 4.0 fold
BA of paclitaxel ([4]; WT mice): 11.7%
BA of paclitaxel ([4]; mdr1a/1b KO mice): 29.0%
FaFg of paclitaxel [4, 12]: 16.6%
Fh of paclitaxel [4, 12]: 70.6
FaFg of paclitaxel ([4]; paclitaxel 20 mg/kg po, mdr1a/1b KO mice): 66.3%
t1/2 of paclitaxel ([4]; paclitaxel 20 mg/kg po, mdr1a/1b KO mice, pv): 1.25 h
Cmax ([4]; read-out: Cmax of paclitaxel, paclitaxel 20 mg/kg po, mdr1a/1b KO mice, pv): 2520 nM
V of paclitaxel, mdr1a/1b KO mice versus WT mice ([5]; 10 min): approximately 3.5 fold
Absorption Rate V of paclitaxel ([5]; 10 min, WT mice, no inhibitor): 15.7 nmol/min/kg
Cpv of paclitaxel ([5]; 10 min, WT mice, no inhibitor): 439 ± 98 nM
Cpv − Csys of paclitaxel ([5]; 10 min, WT mice, no inhibitor): 216 ± 80 nM
Absorption Rate V of paclitaxel ([5]; 10 min, mdr1a/1b KO mice): 54.3 nmol/min/kg
Cpv of paclitaxel ([5]; 10 min, mdr1a/1b KO mice): 967 ± 191 nM
Cpv − Csys of paclitaxel ([5]; 10 min, mdr1a/1b KO mice): 749 ± 165 nM
V of paclitaxel, mdr1a/1b KO mice versus WT mice ([5]; 30 min): approximately 5.1 fold
Absorption Rate V of paclitaxel ([5]; 30 min, WT mice, no inhibitor): 12.4 nmol/min/kg
Cpv − Csys of paclitaxel ([5]; 30 min, WT mice, no inhibitor): 165 ± 61 nM
Absorption Rate V of paclitaxel ([5]; 30 min, mdr1a/1b KO mice): 63.7 nmol/min/kg
Cpv − Csys of paclitaxel ([5]; 30 min, mdr1a/1b KO mice): 847 ± 144 nM
concentration at 10 min (in vivo [6]; portal vein plasma): 967 nM
concentration at 30 min (in vivo [6]; portal vein plasma): 1090 ± 118 nM
concentration at 10 min (in vivo [6]; [13]): 218 ± 100 nM
concentration at 30 min (in vivo [6]; [13]): 245 ± 69 nM
concentration at 10 min (in vivo [6]; male, portal vein plasma): 439 nM
concentration at 30 min (in vivo [6]; male, portal vein plasma): 328 ± 41 nM
concentration at 10 min (in vivo [6]; [14]): 223 ± 76 nM
concentration at 30 min (in vivo [6]; [14]): 135 ± 41 nM
AUC (in vivo [7]; plasma, iv, 5 mg/kg): 2.66 µM·h
MRT (in vivo [7]; plasma, iv, 5 mg/kg): 1.47 h
Vd (in vivo [7]; plasma, iv, 5 mg/kg): 4.15 L/kg
clearance (in vivo [7]; plasma, iv, 5 mg/kg): 36.7 mL/min/kg
half-life (in vivo [7]; plasma, iv, 5 mg/kg): 2.12 h
AUC (in vivo [7]; [15]): 6.58 µM·h
MRT (in vivo [7]; [15]): 2.16 h
Tmax (in vivo [7]; [15]): 1 h
k el (in vivo [7]; [15]): 0.000153 s⁻¹
AUC (in vivo [7]; [16]): 3.09 µM·h
Cmax (in vivo [7]; [16]): 1180 nM
MRT (in vivo [7]; [16]): 3.09 h
Tmax (in vivo [7]; [16]): 1 h
k el (in vivo [7]; [16]): 9.72e-05 s⁻¹
half-life (in vivo [7]; systemic plasma, po, 20 mg/kg): 2 h
AUC (in vivo [7]; male, plasma, iv, 5 mg/kg): 2.32 µM·h
MRT (in vivo [7]; male, plasma, iv, 5 mg/kg): 1.71 h
Vd (in vivo [7]; male, plasma, iv, 5 mg/kg): 4.32 L/kg
clearance (in vivo [7]; male, plasma, iv, 5 mg/kg): 42 mL/min/kg
AUC (in vivo [7]; [17]): 2 µM·h
Cmax (in vivo [7]; [17]): 730 nM
MRT (in vivo [7]; [17]): 2.51 h
Tmax (in vivo [7]; [17]): 1 h
half-life (in vivo [7]; [17]): 1.62 h
k el (in vivo [7]; [17]): 0.000119 s⁻¹
AUC (in vivo [7]; [18]): 1.09 µM·h
Cmax (in vivo [7]; [18]): 442 nM
MRT (in vivo [7]; [18]): 2.29 h
Tmax (in vivo [7]; [18]): 1 h
k el (in vivo [7]; [18]): 0.000139 s⁻¹
half-life (in vivo [7]; male, systemic plasma, po, 20 mg/kg): 1.37 h

COc1cc(C(=O)C(=O)N2CCCC[C@H]2C(=O)OC(CCCc2cccnc2)CCCc2cccnc2)cc(OC)c1OC [VX-710, (S)-N-(2-Oxo-2-(3,4,5-trimethoxyphenyl)-acetyl)piperidine-2-carboxylic acid 1,7-bis(3-pyridyl)-4-heptyl ester]
Hill coefficient, ER of mitoxantrone (BCRP): 0.46 ± 0.12
IC50 (BCRP; IC50 on ER of mitoxantrone, 50% decrease of efflux ratio): 1640 ± 520 nM
IC50 (BCRP; [8]): 2680 ± 31 nM
Hill coefficient, ER of paclitaxel (P-gp [1]; Caco-2 monolayers): 1.68 ± 0.38
IC50 (P-gp [1]; [9]): 871 ± 277 nM
IC50 (P-gp [1]; [10]): 4500 ± 84 nM
IC50 (P-gp [1]; [11]): 2680 ± 53 nM
